The test in a line: Effect on oxygen consumption in fasted rats (metabolic cages). In kind it is in vivo, Albinoratten. The conditions noted are these: placebo-corrected; for Sauerstoffverbrauch 1. bis 3. Stunde: mean of hours 1-3 after dosing; for Sauerstoffverbrauch 1. bis 12. Stunde: mean of hours 1-12 after dosing. As for the experimental part: Wirkung auf den Sauerstoffverbrauch
Gruppen von 6 männlichen Albinoratten im Gewicht von 160-180 g wurden nach 24 Stunden Fasten in Stoffwechselkäfige gesetzt. Die Käfige wurden mit konstant 6 Liter Raumluft/Minute, die bei einem Taupunkt von 11°C äquilibriert wurden belüftet. Von der Abluft wurde nach erneuter Aequilibrierung während Perioden von jeweils 14 Minuten Proben gesammelt und der Sauerstoff- und CO₂-Gehalt analysiert. Nach einer Anpassungszeit von 4 Stunden erhielten die Tiere entweder Placebo (5% Gummi arabicum) oder die Testsubstanz, nämlich BAP (suspendiert in 5% Gummi arabicum) per os oder intraperitoneal. Danach wurden 12 Stunden lang die Bestimmungen durchgeführt. In der nachfolgenden Tabelle ist der gemittelte Sauerstoffverbrauch nach Medikation während der ersten 3 Stunden und der gesamten Versuchsdauer (12 Stunden) als Prozentsatz des Sauerstoffverbrauchs der Anpassungsperiode (100%) angegeben, wobei entsprechende Korrekturen für Aenderungen in der Placebo-Gruppe berücksichtigt wurden, Tabelle

On to `OCCOc1ccc(CCN(C[C@H](O)c2cccc(Cl)c2)C[C@H](O)c2cccc(Cl)c2)cc1` [BAP, 4-[2-[Bis[(R)-β-hydroxy-3-chlorphenäthyl]amino]äthyl]phenoxyäthanol], for which the “Sauerstoffverbrauch 1. bis 3. Stunde” value is 134 % vom Wert der Vorperiode (0,3 µM/kg i.p.); 114 % vom Wert der Vorperiode (0,3 µM/kg p.os); 172 % vom Wert der Vorperiode (1 µM/kg i.p.); 156 % vom Wert der Vorperiode (1 µM/kg p.os); 174 % vom Wert der Vorperiode (3 µM/kg i.p.); 179 % vom Wert der Vorperiode (3 µM/kg p.os). In addition, the “Sauerstoffverbrauch 1. bis 3. Stunde” value worked out at 186 % vom Wert der Vorperiode (10 µM/kg i.p.) and 191 % vom Wert der Vorperiode (10 µM/kg p.os). The “Sauerstoffverbrauch 1. bis 12. Stunde” value is, setting by setting: (0,3 µM/kg i.p.) 108 % vom Wert der Vorperiode; (0,3 µM/kg p.os) 105 % vom Wert der Vorperiode; (1 µM/kg i.p.) 121 % vom Wert der Vorperiode; (1 µM/kg p.os) 122 % vom Wert der Vorperiode; (3 µM/kg i.p.) 134 % vom Wert der Vorperiode; (3 µM/kg p.os) 137 % vom Wert der Vorperiode. Further, the “Sauerstoffverbrauch 1. bis 12. Stunde” value (10 µM/kg i.p.) was found to be 154 % vom Wert der Vorperiode and the “Sauerstoffverbrauch 1. bis 12. Stunde” value (10 µM/kg p.os) amounted to 157 % vom Wert der Vorperiode.

The record behind these values is patent EP0386603A2, “Bisphenethanolamine” (F. HOFFMANN-LA ROCHE AG, priority 1989, dated 1990).
